According to patent publication US20140057884A1, “PHARMACEUTICAL COMPOSITION FOR PREVENTING OR TREATING LIVER CANCER COMPRISING STIGMASTEROL AND 5 BETA-HYDROXYSITOSTANOL ISOLATED FROM NAVICULA INCERTA” (PUKYONG NATIONAL UNIVERSITY INDUSTRY-UNIVERSITY CO, priority 2012, published 2014):
Read-outs that look alike come from different tables or passages of the source.

What was measured:
Assay type in all cases: cell-based, human
[1] = MTT cell viability assay; conditions: human
Description: (§1) Cell viability was measured using MTT [3-(4,5-dimethylthiazol-2-yl)-2,5-diphenyltetrazolium bromide] assay utilizing […] MTT is reduced to purple formazan by the action of mitochondrial dehydrogenase which has viability only in living cells.
(§2) The HepG2 cells were grown in 96-well plates at a density of 2×10^4 cells/well. After 24 h, cells were treated with different concentrations ([…], 20 μM) of stigmasterol and 5β-hydroxysitostanol. After incubation for 24 h, the cells were incubated with 100 μL of MTT (1 mg/mL) for 4 h. Finally, DMSO was added so that the amount of formazan crystal was determined by measuring the absorbance at 550 nm using a multidetection microplate reader.

[2] = tested on: HepG2 cells; assay: MTT cell viability assay; conditions: for cell viability with increasing concentrations: HepG2 cells, 5-20 μM, 24 h
Description: as §1, §2

[3] = tested on: HepG2 cells; assay: Cell cycle analysis (PI staining, FACS); conditions: for G2/M phase of the cell cycle as the concentration increased: HepG2 cells, 5, 10, 20 μM; for G2/M phase of the cell cycle: HepG2 cells, highest concentration (20 μM)
Description: The HepG2 cells were cultured in 6 cm^2 dishes treated with different concentrations (5 μM, 10 μM, 20 μM) of stigmasterol and 5β-hydroxysitostanol. The cells were stained with propidium iodide (PI), and the cell cycle was analyzed by measuring the amount of DNA with FACS.

[4] = tested on: HepG2 cells; assay: Western blotting assay; conditions: HepG2 cells, 5, 10, 20 μM, 24 h, Western blot
Description: Western blotting assay was performed to investigate specific […] expression of HepG2 cells.
HepG2 cells were cultured at a density of 1×10^4 cells/ml in 10 cm^2 culture dishes for 24 h. The cells were then treated with different concentrations (5 μM, 10 μM, 20 μM) of stigmasterol and 5β-hydroxysitostanol for 24 h. The cells were lysed in cell lysis buffer to give protein extract. The extracted protein was separated by molecular weight using SDS electrophoresis. Corresponding antibodies were attached to intended protein and the protein bands were detected with ECL solution using LAS-3000 system.

[5] = tested on: HepG2 cells; assay: Observation of morphological changes of the cells (light microscope; fluorescence microscope after Hoechst 33342 staining); conditions: 24 h; for shape of the attached HepG2 cells / number of attached cells (living cells): light microscope; for nuclei of the attached HepG2 cells: increasing concentrations (5, 10, 20 μM), Hoechst 33342, fluorescence microscope; for number of attached cells (living cells): increasing doses
Description: HepG2 ells were grown in 12-well plates at a density of 2×10^4 cells/well. After overnight incubation, cells were treated with different concentrations ([…], 20 μM) of stigmasterol and 5β-hydroxysitostanol and incubated for another 24 h. The cells were washed with PBS. After washing, 4% (v/v) formaldehyde solution was dissolved in PBS and added to the plate, and left for 1 h at room temperature. The fixed cells were detected by a light microscope.
Further, the HepG2 cells were grown in 12-well plates at a density of 2×10^4 cells/well. After overnight incubation, cells were treated with different concentrations (5 μM, 10 μM, 20 μM) of stigmasterol and 5β-hydroxysitostanol and incubated for another 24 h. The cells were then washed with PBS. After washing, 4% (v/v) formaldehyde solution was dissolved in PBS and added to the plate, and left for 1 h at room temperature so that cells were fixated. The fixed cells were stained with staining dye, Bisbenzimide Hoechst 33342 and left for 1 h at room temperature. The stained cells were observed under fluorescence microscope.

[6] = tested on: HepG2 cells; assay: RT-PCR analysis of mRNA expression of apoptosis-related genes
Description: HepG2 cells treated with stigmasterol and 5β-hydroxysitostanol were treated with TRIzol® reagent were transferred to microtubes at each concentration. 200 μl, of chloroform was added to each tube and microtubes were centrifuged at 12,000×g for 15 min. After centrifugation, supernatant phase was transferred to a new microtube and mixed with isopropanol at the ratio of 1:1. After incubation for 10 min at room temperature and centrifugation at 12,000×g for 10 min, supernatant was discarded and RNA pellet was washed, followed by centrifugation at 12,000×g for 15 min. Following removal of ethanol, RNA pellet was suspended in DEPC-treated water and so that RNA pellet was dissolved at 55° C. for 10 min. Dissolved RNA pellet was kept at −20° C. for further experiments.
RT-PCR was performed to check specific mRNA expression in HepG2 cells.
Thirteen μg of RNA dissolved in DEPC— treated water and 2 μL of oligo (di) were added to PCR microtubes and denaturated at 70° C. for 5 min in a thermal cycler. Later, RT-PCR mastermix was added to microtubes to synthesize cDNA. Primers corresponding to specific RNA were bound to the synthesized cDNA, and gene amplification was carried out with the thermal cycler. The PCR products were electrophoresed on 1% agarose gel and bands of the respective primers were checked with UV.

Row | SMILES | cytotoxicity at 24 h, 5 μM [1] | cytotoxicity at 24 h, 10 μM [1] | cytotoxicity at 24 h, 20 μM [1] | cytotoxicity according to concentration [2] | cell viability with increasing concentrations [2] | G2/M phase of the cell cycle as the concentration increased [3] | G2/M phase of the cell cycle [3] | expression of cell apoptosis inducing factors caspase-8, 9 [4] | shape of the attached HepG2 cells [5] | nuclei of the attached HepG2 cells [5] | number of attached cells (living cells) [5] | expression of caspase-8, Bax and FASL [6] | cytotoxicity at 24 h, 5 μM ([1]; HepG2 cells, 5 μM, 24 h, MTT, read-out: inhibition of cell viability (rate)) | cytotoxicity at 24 h, 10 μM ([1]; HepG2 cells, 10 μM, 24 h, MTT, read-out: inhibition of cell viability (rate)) | cytotoxicity at 24 h, 20 μM ([1]; HepG2 cells, 20 μM, 24 h, MTT, read-out: inhibition of cell viability (rate)) | expression of cell apoptosis inducing factors caspase-8, 9, Bax, p53, p21, FAS and FASL [6] | expression of cell apoptosis inhibiting factors Bcl-2 and XIAP [6]
1 | CCC(CCC(C)C1CCC2C3CCC4(O)CC(O)CCC4(C)C3CCC12C)C(C)C (stereo not drawn) [5β-hydroxysitostanol] | ~6% | ~9% | ~15% | no cytotoxicity | dose-dependent decrease | increased | 25.83% | upregulate | shrinkage | significantly condensed | remarkably reduced | upregulates |  |  |  |  | 
2 | CC[C@H](/C=C/[C@@H](C)[C@H]1CC[C@H]2[C@@H]3CC=C4C[C@@H](O)CC[C@]4(C)[C@H]3CC[C@]12C)C(C)C [stigmasterol] |  |  |  |  | dose-dependent decrease | increased | 26.87% | upregulate | shrinkage | significantly condensed | remarkably reduced |  | ~40% | ~43% | ~54% | upregulates | downregulates
